In US20020028836A1, “Potassium channel openers” (priority 2000, published 2002):
Where two headings read alike, the source gives them in different places.

How the values were obtained:
[1] = tested on: tissue strips obtained from Landrace pig bladders; test: Functional potassium channel opening activity in isolated bladder strips (field-stimulated twitch); settings: for Index: ED50 for P1075 divided by ED50 for the test agonist in a given tissue, averaged; for EC50: amount of agent necessary to cause 50% of the agent's maximal response, read-out: ED50 (the source's name); for Emax / Efficacy (% P1075): maximal efficacy relative to P1075, field stimulation 0.05 Hz, 0.5 ms, 20 volts
Protocol: Compounds were evaluated for functional potassium channel opening activity using tissue strips obtained from Landrace pig bladders.
Landrace pig bladders were obtained from female Landrace pigs of 9-30 kg. Landrace pigs were euthanized with an intraperitoneal injection of pentobarbital solution, Somlethal®, J. A. Webster Inc., Sterling, Mass. The entire bladder was removed and immediately placed into Krebs Ringer bicarbonate solution (composition, mM: NaCl, 120; NaHCO3, 20; dextrose, 11; KCl, 4.7; CaCl2, 2.5; MgSO4, 1.5; KH2PO4, 1.2; K2EDTA, 0.01, equilibrated with 5% CO2/95% O2pH 7.4 at 37° C.). Propranolol (0.004 mM) was included in all of the assays to block β-adrenoceptors. The trigonal and dome portions were discarded. Strips 3-5 mm wide and 20 mm long were prepared from the remaining tissue cut in a circular fashion. The mucosal layer was removed. One end was fixed to a stationary glass rod and the other to a Grass FT03 transducer at a basal preload of 1.0 gram. Two parallel platinum electrodes were included in the stationary glass rod to provide field stimulation of 0.05 Hz, 0.5 milli-seconds at 20 volts. This low frequency stimulation produced a stable twitch response of 100-500 centigrams. Tissues were allowed to equilibrate for at least 60 minutes and primed with 80 mM KCl. A control concentration response curve (cumulative) was generated for each tissue using the potassium channel opener P1075 as the control agonist. […] After a 60 minute rinsing period, a concentration response curve (cumulative) was generated for the test agonist in the same fashion as that used for the control agonist P1075. The maximal efficacy of each compound (expressed as % relative to P1075) is reported. The amount of agent necessary to cause 50% of the agent's maximal response (ED50) was calculated using “ALLFIT” (DeLean et al., Am. J. Physiol., 235, E97 (1980)), hereby incorporated by reference. Agonist potencies were also expressed as an index relative to P1075. The index was calculated by dividing the ED50 for P1075 by the ED50 for the test agonist in a given tissue. Each tissue was used for only one test agonist, and the indices obtained from each tissue were averaged to provide an average index of potency.

[2] = tested on: primary cultured guinea-pig urinary bladder (GPB) cells; test: Membrane hyperpolarization (MHP) assay, DiBAC(4)3 / FLIPR; type: cell-based; settings: for EC50: concentration that elicits 50% of the maximal response for the test sample; for Emax / Maximal Response (% P1075): maximal steady-state hyperpolarization, normalized to response with 10 μM P1075 (100%)
Protocol: Compounds were evaluated for potassium channel opening activity using primary cultured guinea-pig urinary bladder (GPB) cells.
For the preparation of urinary bladder smooth muscle cells, urinary bladders were removed from male guinea-pigs (Hartley, Charles River, Wilmington, Mass.) weighing 300-400 g and placed in ice-cold Ca^2+-free Krebs solution (Composition, mM: KCl, 2.7; KH2PO4, 1.5; NaCl, 75; Na2HPO4, 9.6; Na2HPO4.7H2O, 8; MgSO4, 2; glucose, 5; HEPES, 10; pH 7.4). Cells were isolated by enzymatic dissociation as previously described with minor modifications (Klockner, U. and Isenberg, G., Pflugers Arch. (1985), 405, 329-339), hereby incorporated by reference. The bladder was cut into small sections and incubated in 5 mL of the Kreb's solution containing I mg/mL collagenase (Sigma, St. Louis, Mo.) and 0.2 mg/mL pronase (Calbiochem, La Jolla, Calif.) with continuous stirring in a cell incubator for 30 minutes. The mixture was then centrifuged at 1300×g for 5 minutes, and the pellet resuspended in Dulbecco's PBS (GIBCO, Gaithersburg, Md.) and recentrifuged to remove residual enzyme. The cell pellet was resuspended in 5 mL growth media (composition: Dulbecco's modified Eagle's medium supplemented with 10% fetal bovine serum, 100 units/mL penicillin, 100 units/mL streptomycin and […] amphotericin B) and further dissociated by pipetting the suspension through a flame-polished Pasteur pipette and passing it through a polypropylene mesh membrane (Spectrum, Houston, Tex.). The cell density was adjusted to 100,000 cells/mL by resuspension in growth media. Cells were plated in clear-bottomed black 96-well plates (Packard) for membrane potential studies at a density of 20,000 cells/well and maintained in a cell incubator with 90% air: 10% CO2 until confluent. Cells were confirmed to be of smooth muscle type by cytoskeletal staining using a monoclonal mouse anti human-α-smooth muscle actin (Biomeda, Foster City, Calif.).
Functional activity at potassium channels was measured by evaluating changes in membrane potential using the bis-oxonol dye DiBAC(4) (Molecular Probes) in a 96-well cell-based kinetic assay system, Fluorescent Imaging Plate Reader (FLIPR) (K. S. Schroeder et al., J. Biomed. Screen., v. 1 pp. 75-81 (1996)), hereby incorporated by reference. DiBAC(4)3 is an anionic potentiometric probe which partitions between cells and extracellular solution in a membrane potential-dependent manner. With increasing membrane potential (for example, K^+ depolarization), the probe further partitions into the cell; this is measured as an increase in fluorescence due to dye interaction with intracellular lipids and proteins. Conversely, decreasing membrane potential (hyperpolarization by potassium channel openers) evokes a decrease in fluorescence.
Confluent guinea-pig urinary bladder cells cultured in black clear-bottomed 96-well plates were rinsed twice with […] assay buffer (composition, mM: HEPES, 20; NaCl, 120; KCl, 2; CaCl2, 2; MgCl2, 1; glucose, 5; pH 7.4 at 25° C.) containing 5 μM DiBAC(4)3 and incubated with […] of the buffer in a cell incubator for 30 minutes at 37° C. to ensure dye distribution across the membrane. After recording the baseline fluorescence for 5 minutes, the reference or test compounds, prepared at 10 times the concentration in the assay buffer, were added directly to the wells. Changes in fluorescence were monitored for an additional 25 minutes. Hyperpolarization responses were corrected for any background noise and were normalized to the response observed with 10 μM of the reference compound P1075 (assigned as 100%), a potent opener of smooth muscle KATP channels (Quast et al., Mol. Pharmacol., v. 43 pp. 474-481 (1993)), hereby incorporated by reference.
Routinely, five concentrations of P1075 or test compounds (log or half-log dilutions) were evaluated and the maximal steady-state hyperpolarization values (expressed as % relative to P1075) plotted as a function of concentration. […]

SMILES	Index [1]	EC50 ([1]; Sus scrofa) [µM]	Emax ([1]; Sus scrofa) [%]	EC50 ([2]; Cavia porcellus) [µM]	Emax ([2]; Cavia porcellus) [%]	EC50 [1] [µM]	Efficacy (% P1075) [1] [% P1075]	EC50 [2] [µM]	Maximal Response (% P1075) [2] [% P1075]
CC(C)(C)C(NC(=O)c1ccc(Cl)cc1)NC(=S)Nc1cccnc1 (centres unmarked) [Example 27, 4-chloro-N-(2,2-dimethyl-1-{[(3-pyridinylamino)carbothioyl]amino}propyl)benzamide]	0.009	25	94	0.1	80				
CC(C)(C)C(NC(=O)c1ccc(Cl)cc1)NC(=N[N+](=O)[O-])Nc1cccnc1 (centres unmarked) [Example 123, 4-chloro-N-(1-{[(nitroimino)(3-pyridinylamino)methyl]amino}-2,2-dimethylpropyl)benzamide]	0.028	10	63	0.85	90				
CCCCC(C)(C)C(NC(=O)c1ccc(Cl)cc1)NC(=NC#N)Nc1cccnc1 (centres unmarked) [Example 94, 4-chloro-N-(1-{[(cyanoimino)(3-pyridinylamino)methyl]amino}-2,2-dimethylhexyl)benzamide]				0.16	82				
CC(C)(C)C(NC(=O)c1ccc(Cl)cc1F)NC(=NC#N)Nc1cccnc1 (centres unmarked) [Example 106, 4-chloro-N-(1-{[(cyanoimino)(3-pyridinylamino)methyl]amino}-2,2-dimethylpropyl)-2-fluorobenzamide]	0.010	12	69	0.63	85				
Cc1ccc(C(=O)NC(NC(=S)Nc2cccc([N+](=O)[O-])c2)c2ccccc2)cc1 (centres unmarked) [Example 33, 4-methyl-N-[{[(3-nitroanilino)carbothioyl]amino}(phenyl)methyl]benzamide]	0.027	12	80	0.22	102				
O=C(NC(NC(=S)Nc1ccccc1F)C(F)(F)F)c1ccc(Cl)cc1 (centres unmarked) [Example 21, 4-chloro-N-(2,2,2-trifluoro-1-{[(2-fluoroanilino)carbothioyl]amino}ethyl)benzamide]	0.014	21	86	0.09	96				
Cc1ccc(C(=O)NC(NC(=NC#N)Nc2cccnc2)C(Cl)(Cl)Cl)cc1 (centres unmarked) [Example 44, 4-methyl-N-(2,2,2-trichloro-1-{[(cyanoimino)(3-pyridinylamino)methyl]amino}ethyl)benzamide]	0.040	2	95	0.04	103				
Cc1ccc(C(=O)NC(NC(=NC#N)Nc2cccnc2)C(C)(C)C)cc1 (single isomer, unassigned; (+)) [Example 58, (+) N-(1-{[(cyanoimino)(3-pyridinylamino)methyl]amino}-2,2-dimethylpropyl)-4-methylbenzamide]	0.008					12	59	0.65	87
C=CCOCC(CC)(COCC=C)C(NC(=O)c1ccc(Cl)cc1)NC(=NC#N)Nc1cccnc1 (centres unmarked) [Example 96, N-(2,2-bis[(allyloxy)methyl]-1-{[(cyanoimino)(3-pyridinylamino)methyl]amino}butyl)-4-chlorobenzamide]				0.24	93				
Cc1ccc(C(=O)N[C@H](NC(=S)Nc2cccnc2)C(C)(C)C)cc1 [Example 23, N-((1R)-2,2-dimethyl-1-{[(3-pyridinylamino)carbothioyl]amino}propyl)-4-methylbenzamide]	0.009	16	100	3.96	66				
O=C(NC(NC(=S)Nc1cccnc1)C(Cl)(Cl)Cl)c1ccc(I)cc1 (centres unmarked) [Example 148, 4-iodo-N-(2,2,2-trichloro-1-{[(3-pyridinylamino)carbothioyl]amino}ethyl)benzamide]	0.082	1.1	78	0.096	61				
CCC(CC)(CCC#N)C(NC(=O)c1ccc(Cl)cc1)NC(=NC#N)Nc1cccnc1 (single isomer, unassigned; (-)) [Example 86, (−) 4-chloro-N-(4-cyano-1-{[(cyanoimino)(3-pyridinylamino)methyl]amino}-2,2-diethylbutyl)benzamide]	0.01					30	19	0.086	83
Cc1ccc(C(=O)NC(NC(=S)Nc2ccc(F)cc2F)C(F)(F)F)cc1 (centres unmarked) [Example 15, N-(1-{[(2,4-difluoroanilino)carbothioyl]amino}-2,2,2-trifluoroethyl)-4-methylbenzamide]	0.005	28	97	0.55	70				
CCC(CC)(CCC#N)C(NC(=O)c1ccc(Cl)cc1)NC(=NC#N)Nc1cccnc1 (centres unmarked) [Example 65, 4-chloro-N-(4-cyano-1-{[(cyanoimino)(3-pyridinylamino)methyl]amino}-2,2-diethylbutyl)benzamide]					89			0.13	
N#CN=C(Nc1cccnc1)NC(NC(=O)c1ccc(Cl)cc1)C(Cl)(Cl)Cl (centres unmarked) [Example 45, 4-chloro-N-(2,2,2-trichloro-1-{[(cyanoimino)(3-pyridinylamino)methyl]amino}ethyl)benzamide]				0.04	92				
CC1=C(CC(NC(=O)c2ccc(Cl)cc2)NC(=NC#N)Nc2cccnc2)C(C)(C)CCC1 (centres unmarked) [Example 66, 4-chloro-N-[1-{[(cyanoimino)(3-pyridinylamino)methyl]amino}-2-(2,6,6-trimethyl-1-cyclohexen-1-yl)ethyl]benzamide]					79			0.082	
